Experiments:
TNF-α secretion = test: TNF-α ELISA: TNF-alpha suppression in PMA/ionomycin-induced white blood cells; conditions: for TNF-α inhibition achievable by steroid alone: even at very high concentrations
[1] = 200 mg/day orally; cited from earlier work

Clc1ccccc1C(c1ccccc1)(c1ccccc1)n1ccnc1 [Clotrimazole, clotrimazole]
TNF-alpha Suppression (TNF-α secretion; Diflorasone 0.0 nM, Clotrimazole 0.008 μM): 4.92% | TNF-alpha Suppression (TNF-α secretion; Diflorasone 0.0 nM, Clotrimazole 0.014 μM): 5.86% | TNF-alpha Suppression (TNF-α secretion; Diflorasone 0.0 nM, Clotrimazole 0.031 μM): 12.47% | TNF-alpha Suppression (TNF-α secretion; Diflorasone 0.0 nM, Clotrimazole 0.063 μM): 11.43% | TNF-alpha Suppression (TNF-α secretion; Diflorasone 0.0 nM, Clotrimazole 0.125 μM): 18.40% | TNF-alpha Suppression (TNF-α secretion; Diflorasone 0.0 nM, Clotrimazole 0.250 μM): 14.29% | TNF-alpha Suppression (TNF-α secretion; Diflorasone 0.0 nM, Clotrimazole 0.500 μM): 20.07% | TNF-alpha Suppression (TNF-α secretion; Diflorasone 0.0 nM, Clotrimazole 1.000 μM): 19.90% | TNF-alpha Suppression (TNF-α secretion; Diflorasone 0.0 nM, Clotrimazole 2.000 μM): 30.02%

C[C@@H]1C[C@H]2[C@@H]3CCC4=CC(=O)C=C[C@]4(C)[C@@]3(F)[C@@H](O)C[C@]2(C)[C@@]1(O)C(=O)CO [Dexamethasone, dexamethasone]
TNF-alpha Suppression (TNF-α secretion; Dexamethasone 1.0 nM, Econazole 0.000 μM): 23.96% | TNF-alpha Suppression (TNF-α secretion; Dexamethasone 2.0 nM, Econazole 0.000 μM): 33.10% | TNF-alpha Suppression (TNF-α secretion; Dexamethasone 4.0 nM, Econazole 0.000 μM): 36.87% | TNF-alpha Suppression (TNF-α secretion; Dexamethasone 8.0 nM, Econazole 0.000 μM): 40.33% | TNF-alpha Suppression (TNF-α secretion; Dexamethasone 16.0 nM, Econazole 0.000 μM): 44.12% | TNF-alpha Suppression (TNF-α secretion; Dexamethasone 32.0 nM, Econazole 0.000 μM): 51.26% | TNF-alpha Suppression (TNF-α secretion; Dexamethasone 64.0 nM, Econazole 0.000 μM): 54.35% | TNF-alpha Suppression (TNF-α secretion; Dexamethasone 127.0 nM, Econazole 0.000 μM): 52.97% | TNF-alpha Suppression (TNF-α secretion; Dexamethasone 255.0 nM, Econazole 0.000 μM): 59.93% | TNF-α inhibition achievable by steroid alone (TNF-α secretion; dexamethasone alone): 60% | suppression of TNF-α secretion (TNF-α secretion; single agent concentration of 4 nM, PMA and ionomycin stimulated PBMCs): 40%

CC(=O)OCC(=O)[C@@]1(OC(C)=O)[C@@H](C)C[C@H]2[C@@H]3C[C@H](F)C4=CC(=O)C=C[C@]4(C)[C@@]3(F)[C@@H](O)C[C@@]21C [Diflorasone, diflorasone]
TNF-alpha Suppression (TNF-α secretion; Diflorasone 0.5 nM, Clotrimazole 0.000 μM): 9.84% | TNF-alpha Suppression (TNF-α secretion; Diflorasone 0.9 nM, Clotrimazole 0.000 μM): 16.12% | TNF-alpha Suppression (TNF-α secretion; Diflorasone 1.9 nM, Clotrimazole 0.000 μM): 21.93% | TNF-alpha Suppression (TNF-α secretion; Diflorasone 3.8 nM, Clotrimazole 0.000 μM): 29.01% | TNF-alpha Suppression (TNF-α secretion; Diflorasone 7.5 nM, Clotrimazole 0.000 μM): 36.86% | TNF-alpha Suppression (TNF-α secretion; Diflorasone 15.0 nM, Clotrimazole 0.000 μM): 41.37% | TNF-alpha Suppression (TNF-α secretion; Diflorasone 30.0 nM, Clotrimazole 0.000 μM): 49.96% | TNF-alpha Suppression (TNF-α secretion; Diflorasone 60.0 nM, Clotrimazole 0.000 μM): 48.95% | TNF-alpha Suppression (TNF-α secretion; Diflorasone 120.0 nM, Clotrimazole 0.000 μM): 47.05% | TNF-α inhibition achievable by steroid alone (TNF-α secretion; diflorasone alone): 47% | suppression of TNF-α secretion (TNF-α secretion; single agent concentration of 3.8 nM, P/I stimulated PBMCs): 29%

Clc1ccc(COC(Cn2ccnc2)c2ccc(Cl)cc2Cl)cc1 (stereo not shown) [Econazole, econazole]
TNF-alpha Suppression (TNF-α secretion; Dexamethasone 0.0 nM, Econazole 0.035 μM): 13.30% | TNF-alpha Suppression (TNF-α secretion; Dexamethasone 0.0 nM, Econazole 0.070 μM): 20.05% | TNF-alpha Suppression (TNF-α secretion; Dexamethasone 0.0 nM, Econazole 0.141 μM): 14.11% | TNF-alpha Suppression (TNF-α secretion; Dexamethasone 0.0 nM, Econazole 0.281 μM): 16.99% | TNF-alpha Suppression (TNF-α secretion; Dexamethasone 0.0 nM, Econazole 1.124 μM): 38.71% | TNF-alpha Suppression (TNF-α secretion; Dexamethasone 0.0 nM, Econazole 2.249 μM): 43.90% | TNF-alpha Suppression (TNF-α secretion; Dexamethasone 0.0 nM, Econazole 4.497 μM): 53.07% | TNF-alpha Suppression (TNF-α secretion; Dexamethasone 0.0 nM, Econazole 8.995 μM): 70.06%

CC(=O)N1CCN(c2ccc(OCC3COC(Cn4ccnc4)(c4ccc(Cl)cc4Cl)O3)cc2)CC1 (stereo not shown) [ketoconazole]
serum concentration [1]: about 3.2 micrograms

Reference: patent US20070259841A1, “Combinations for the treatment of rheumatoid arthritis” (CombinatoRx, Incorporated, priority 2002, published 2007)
